Reference: patent US8394834B2, “Pyrrolidines as NK3 receptor antagonists” (Hoffman-La Roche Inc., priority 2009, dated 2013)

Key:
[1] = test system: schizophrenia; details: phase II trial, cited from earlier work
[2] = target: T1, recombinant human NK3 receptor (Homo sapiens, UniProt P29371); assay: [3H]SR142801 competition binding assay; details: hNK3 receptor, membranes from HEK293 cells transiently expressing the receptor, [3H]SR142801 radioligand
T1 construct: expressed in transfected cells; host or cells: HEK293 cells (transient expression), membranes
T1 sequence (P29371 1-465): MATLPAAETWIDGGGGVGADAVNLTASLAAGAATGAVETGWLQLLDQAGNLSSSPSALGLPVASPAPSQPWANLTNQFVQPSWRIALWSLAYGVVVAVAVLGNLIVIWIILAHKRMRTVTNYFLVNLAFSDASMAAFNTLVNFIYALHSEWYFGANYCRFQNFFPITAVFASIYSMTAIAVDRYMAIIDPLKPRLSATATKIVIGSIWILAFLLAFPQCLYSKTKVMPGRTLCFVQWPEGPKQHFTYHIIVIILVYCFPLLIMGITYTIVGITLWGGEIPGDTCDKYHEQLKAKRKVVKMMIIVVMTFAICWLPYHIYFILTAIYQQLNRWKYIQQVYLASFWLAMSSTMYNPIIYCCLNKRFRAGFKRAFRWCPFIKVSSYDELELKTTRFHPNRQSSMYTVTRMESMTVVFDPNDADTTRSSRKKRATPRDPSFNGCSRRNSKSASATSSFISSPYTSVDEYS
Procedure: [^3H]SR142801 Competition Binding Assay
hNK3 receptor binding experiment were performed using [^3H]SR142801 (Catalog No. TRK1035, specific activity: 74.0 Ci/mmol, Amersham, GE Healthcare UK limited, Buckinghamshire, UK) and membrane isolated from HEK293 cells transiently expressing recombinant human NK3 receptor. After thawing, the membrane homogenates were centrifuged at 48,000×g for 10 min at 4° C., the pellets were resuspended in the 50 mM Tris-HCl, 4 mM MnCl2, 1 μM phosphoramidon, 0.1% BSA binding buffer at pH 7.4 to a final assay concentration of 5 μg protein/well. For inhibition experiments, membranes were incubated with [^3H]SR142801 at a concentration equal to KD value of radioligand and 10 concentrations of the inhibitory compound (0.0003-10 μM) (in a total reaction volume of 500 μl) for 75 min at room temperature (RT). At the end of the incubation, membranes were filtered onto unitfilter (96-well white microplate with bonded GF/C filter preincubated 1 h in 0.3% PEI+0.3% BSA, Packard BioScience, Meriden, Conn.) with a Filtermate 196 harvester (Packard BioScience) and washed 4 times with ice-cold 50 mM Tris-HCl, pH 7.4 buffer. Nonspecific binding was measured in the presence of 10 μM SB222200 for both radioligands. The radioactivity on the filter was counted (5 min) on a Packard Top-count microplate scintillation counter with quenching correction after addition of 45 μl of microscint 40 (Can berra Packard S. A., Zürich, Switzerland) and shaking for 1 h. Inhibition curves were fitted according to the Hill equation: […]), where nH=slope factor using Excel-fit 4 software (Microsoft). IC50 values were derived from the inhibition curve and the affinity constant (Ki) values were calculated using the Cheng-Prussoff equation Ki=IC50/(1+[L]/KD) where [L] is the concentration of radioligand and KD is its dissociation constant at the receptor, derived from the saturation isotherm. All experiments were performed in duplicate and the mean±standard error (SEM) of the individual Ki values was calculated.

Ki [2] [nM]	SMILES	activity on positive symptoms of schizophrenia ([1]; altered behaviour, delusion, hallucinations, extreme emotions, excited motor activity, incoherent speech)	activity in the treatment of negative symptoms ([1]; depression, anhedonia, social isolation or memory and attention deficits)
	CC(=O)N(C)C1(c2ccccc2)CCN(CCC[C@]2(c3ccc(Cl)c(Cl)c3)CCCN(C(=O)c3ccccc3)C2)CC1 [SR 142,801, Osanetant]	active	inactive
1.5	C[C@H](Oc1ccc(Cl)cn1)[C@H]1CN(C(=O)C2CCN(c3cccc(C#N)n3)CC2)C[C@@H]1c1ccc(Cl)cc1 [Example 17, 4-{(3S,4R)-3-(4-Chloro-phenyl)-4-[1-((S)-5-chloro-pyridin-2-yloxy)-ethyl]-pyrrolidine-1-carbonyl}-3,4,5,6-tetrahydro-2H-[1,2′]bipyridinyl-6′-carbonitrile]		
